Data set [1] has as its target T1, mOBP5 (Mus musculus, UniProt Q9D3H2).
T1 construct: composed of an N-terminal His6-tag, followed by mOBP5 (Ala17-Glu163); made in house; host or cells: E. coli M15 [pREP4]
T1 sequence (Q9D3H2 17-163): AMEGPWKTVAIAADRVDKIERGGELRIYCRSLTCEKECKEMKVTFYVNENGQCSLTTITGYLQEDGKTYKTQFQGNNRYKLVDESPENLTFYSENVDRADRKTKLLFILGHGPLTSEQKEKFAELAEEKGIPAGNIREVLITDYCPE
Put plainly: Competitive fluorescence binding assay (displacement of NPN from mOBP5). Conditions: for IC50 / Kd: 2 μM mOBP5, 10 μM NPN; for IC50: 20 °C, for very weak ligands an arbitrary value of 200 μM was assigned, read-out: IC50 (µM) Fluo: concentration of competitor ligand causing a decrease of NPN fluorescence of half-maximal intensity; for Kd: calculated as Kd = [IC50]/(1 + [L]/Kd NPN), average of three experiments, read-out: Kd (µM) Fluo: dissociation constant determined by fluorescence; for fluorescence intensity of the mOBP5-NPN complex in the presence of odorant: competitive curves, Figure 3C. Here is the method: (§1) Competitive ligand binding experiments were performed using N-phenyl-1-naphthylamine (NPN) as a fluorescent probe as previously described. All measurements were conducted at 20 °C using a Cary Eclipse spectrofluorimeter (Agilent Technologies, Santa Clara, CA, United States) equipped with a Peltier temperature-control unit with a 1 cm light path, quartz cuvette, and 5 nm slits for both excitation and emission. […] The excitation wavelength of NPN was 337 nm, and the fluorescence emission was recorded between 350 and 600 nm. The value of the dissociation constant (Kd) NPN was calculated using SigmaPlot 12.5 software (Systat Software, Inc., San Jose, CA, USA), as previously described.
Competitive binding assays were carried out with 2 μM mOBP5 incubated with 10 μM NPN, as previously described. After the addition of the competitor compound and the stabilization of the signal (3–4 min), the fluorescence spectrum was recorded. The IC50 value is the concentration of odorant, which causes a fluorescence decrease in half-maximal intensity. The IC50 values were calculated using SigmaPlot software. Dissociation constants (Kd) for odorant competitors were calculated as Kd = [IC50]/(1 + [L]/Kd NPN), with [L] being the free fluorophore concentration and Kd being the OBP-fluorophore complex dissociation constant. The reported Kd values are the average of three measurements performed in three independent experiments.

Data set [2] addresses T1, mOBP5. Put plainly: Isothermal titration microcalorimetry (ITC). The format is binding. Conditions: 25 °C, 25 μM mOBP5, 250 μM odorant, phosphate buffer pH 7.5; for Ka (ITC): association constant determined by ITC: in M-1 (unit assumed); for Kd: read-out: Kd (µM) ITC: dissociation constant determined by ITC (1/Ka). The method, then: Isothermal titration microcalorimetry (ITC) experiments were carried out at 25 °C with a VP-ITC microcalorimeter (Malvern Panalytical, Palaiseau, France) as previously described. Before initiating the titration run, mOBP5 solutions (25 μM in 50 mM phosphate buffer, pH 7.5) were thoroughly degassed under vacuum. Ligand solutions (250 μM in 50 mM phosphate buffer, pH 7.5) were injected into one 3 µL aliquot, then 26 successive 10 μL aliquots. The duration of each injection was 20 s with a 210 s recovery time between injections. Heats of dilution determined in the absence of mOBP5 were subtracted from the titration data prior to curve fitting. Thermodynamic parameters were obtained by fitting the values to a single site binding model through nonlinear regression using Microcal Origin® software.

Data set [3] addresses T1, mOBP5. Put plainly: Fluorescence titration of mOBP5 with the probe NPN. It counts as binding. Conditions: 2 µM mOBP5, 50 mM sodium phosphate pH 7.5, 20 °C, excitation 337 nm; read-out: dissociation constant (Kd) of NPN. The method, then: as §1
Data set [4] concerns the molecule itself. Put plainly: SEC; calibrated Superdex 75 10/300 GL, room temperature, 100 mM potassium phosphate, 150 mM NaCl, pH 7.5, 1 mL/min; purified mOBP5 at 0.5 mg/mL.

Turning to `CC(C)=CCCC(C)=CC=O` (mixture of isomers) [citral], on mOBP5 [1], the IC50 stood at 2.5 µM and the Kd was 0.61 µM. Also, at mOBP5 [2], the “N ITC: binding stoichiometry per monomer determined by ITC” value (“N ITC: binding stoichiometry per monomer” for short) is 0.65, the “Ka (ITC): association constant determined by ITC” value (“Ka (ITC): association constant” below) is recorded as 1.3E+07 and the Kd was 0.076 µM.

As to `C=C(C)C1CC=C(C)C(=O)C1` (single isomer, unassigned; (-)) [(-)-carvone], on mOBP5 [1], the IC50 came to 1.1 µM, the Kd is 0.28 µM and the “fluorescence intensity of the mOBP5-NPN complex in the presence of odorant” value (“fluorescence intensity” for short) is “drastically reduced”.

Consider `CCCCCCCO` [1-heptanol], for which, at mOBP5 [1], the IC50 turned out to be 2.4 µM and the Kd is 0.59 µM.

With `CCCCCCO` [1-hexanol], the IC50 at mOBP5 [1] came out at 40 µM.

Turning to `CCCCCCCCO` [1-octanol], at mOBP5 [1], the IC50 was 1.1 µM, the Kd was 0.29 µM and the “fluorescence intensity” value was “drastically reduced”. Further, on mOBP5 [2], the “N ITC: binding stoichiometry per monomer” value turned out to be 0.71, the “Ka (ITC): association constant” value is listed as 3.6E+07 and the Kd was 0.028 µM.

In the case of `CCCCCCCCC(C)=O` [2-decanone], at mOBP5 [1], the IC50 was determined as 1.2 µM, the Kd was 0.31 µM and the “fluorescence intensity” value is recorded as “drastically reduced”.

For the molecule `COc1nccnc1CC(C)C` [3-iso-butyl-2-methoxy-pyrazine], on mOBP5 [1], the IC50 turned out to be 7.2 µM and the Kd is 1.3 µM.

Take `COc1ccc(C=O)cc1` [4-methoxy-benzaldehyde]: at mOBP5 [1], the IC50 stood at 40 µM.

Regarding `C=C(C)[C@H]1CC=C(C)C(=O)C1` [(+)-carvone], at mOBP5 [1], the IC50 turned out to be 1 µM, the Kd is 0.28 µM and the “fluorescence intensity” value was “drastically reduced”. At mOBP5 [2], the “N ITC: binding stoichiometry per monomer” value worked out at 0.47, the “Ka (ITC): association constant” value is 8.7E+06 and the Kd came out at 0.115 µM.

Consider `c1ccc(Nc2cccc3ccccc23)cc1` [NPN, N-phenyl-1-naphthylamine], for which the Kd at mOBP5 [3] came to 3330 ± 170 nM.

Consider `CC12CCC(CC1=O)C2(C)C` (stereo not drawn) [camphor], for which, on mOBP5 [1], the IC50 is 10.4 µM and the Kd was 1.6 µM.

With `CC12CCC(CC1)C(C)(C)O2` [cineole], at mOBP5 [1], the IC50 was 40 µM.

Take `CCCC(=O)OCC` [ethyl butyrate]: the IC50 at mOBP5 [1] was 40 µM.

On to `CC(C)=CCC/C(C)=C/CO` [geraniol], for which, at mOBP5 [1], the IC50 was determined as 0.7 µM, the Kd is 0.19 µM and the “fluorescence intensity” value was “drastically reduced”. Also, at mOBP5 [2], the “N ITC: binding stoichiometry per monomer” value turned out to be 0.71, the “Ka (ITC): association constant” value amounted to 2.5E+07 and the Kd turned out to be 0.04 µM.

Take `CC(=O)OCCC(C)C` [isoamyl acetate]: on mOBP5 [1], the IC50 came out at 2.5 µM and the Kd was 0.6 µM. For the same molecule, at mOBP5 [2], the “N ITC: binding stoichiometry per monomer” value came out at 0.87, the “Ka (ITC): association constant” value worked out at 8.6E+06 and the Kd turned out to be 0.116 µM.

Consider `CC(C=O)Cc1ccc(C(C)(C)C)cc1` (stereo not drawn) [lilialdehyde], for which, at mOBP5 [1], the IC50 was 1.4 µM, the Kd is 0.38 µM and the “fluorescence intensity” value is recorded as “drastically reduced”.

For the molecule `C=CC(C)(O)CCC=C(C)C` (stereo not drawn) [linalool], at mOBP5 [1], the IC50 was 1.1 µM, the Kd was 0.3 µM and the “fluorescence intensity” value is recorded as “drastically reduced”.

On to `CC1CCC(C(C)C)C(O)C1` (stereo not drawn) [menthol], for which, at mOBP5 [1], the IC50 was found to be 1.5 µM, the Kd was 0.38 µM and the “fluorescence intensity” value is “drastically reduced”.

Regarding `CC(C)[C@@H]1CC[C@@H](C)CC1=O` [menthone], on mOBP5 [1], the IC50 was 0.8 µM, the Kd was 0.23 µM and the “fluorescence intensity” value is “drastically reduced”. Moreover, at mOBP5 [2], the “N ITC: binding stoichiometry per monomer” value was determined as 0.58, the “Ka (ITC): association constant” value amounted to 1.8E+07 and the Kd came to 0.055 µM.

Regarding `CCCCCCCC=O` [octanal], on mOBP5 [1], the IC50 was 1.3 µM, the Kd was 0.34 µM and the “fluorescence intensity” value is “drastically reduced”.

As for `Cc1ccc(C(C)C)c(O)c1` [thymol], the IC50 at mOBP5 [1] turned out to be 40 µM.

With `CC1=CCC2CC1C2(C)C` (stereo not drawn) [α-pinene], at mOBP5 [1], the IC50 worked out at 0.9 µM, the Kd is 0.24 µM and the “fluorescence intensity” value is on record as “drastically reduced”.

Turning to `CC(=O)/C=C/C1=C(C)CCCC1(C)C` [β-ionone], on mOBP5 [1], the IC50 came out at 3 µM and the Kd was 0.71 µM.

As for `CCCCCCC1CCC(=O)O1` (stereo not drawn) [γ-decalactone], on mOBP5 [1], the IC50 came to 2.4 µM and the Kd is 0.58 µM.

B1: Mus musculus odorant-binding protein OBP5 (mOBP5), recombinant His6-tagged (natural protein, UniProt Q9D3H2 17-163, looked up)
chain: AMEGPWKTVAIAADRVDKIERGGELRIYCRSLTCEKECKEMKVTFYVNENGQCSLTTITGYLQEDGKTYKTQFQGNNRYKLVDESPENLTFYSENVDRADRKTKLLFILGHGPLTSEQKEKFAELAEEKGIPAGNIREVLITDYCPE
notes: Expressed from pQE31 (BamHI/HindIII); also called mOBP1a; source: E. coli M15 [pREP4], purified (HisTrap Ni2+-chelating column, dialysis); not shown: His6, N-terminal, kept
For orientation: stoichiometry N means the number of molecules, sites or subunits per partner or assembly. With B1, in data set [4], the “stoichiometry N” value is 2.

These data come from publication PMC9855133, “Ligand Binding Properties of Odorant-Binding Protein OBP5 from Mus musculus” (Biology, 2022).
